The record followed here is patent EP1144365B1 (TANABE SEIYAKU CO., LTD., priority 1998, dated 2000).

The target in one test is T1, α4β1 integrin (Homo sapiens, UniProt P05556+P13612).
T1 construct: a T-cell line, Jurkat, known to express the α4β1 integrin; host or cells: Jurkat T-cell line
Kind of test: Jurkat-Endothelial Cell Adhesion Assay (Jurkat EC). Format: cell-based. Conditions: Jurkat cell adhesion to IL-1 stimulated endothelial cell monolayers. The method in brief: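 BCECF-loaded Jurkat T cells (5 x 10^5) mixed with compound, generally 100, 20, 5 and 1.25 µM, in DMEM-HSA, added to HUVEC monolayers prestimulated 4 h with 0.1 ng/ml IL-1. After washing, adherent-cell fluorescence read; % adhesion relative to no-compound control set at 100%.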

The next test has as its target T2, α4β1 (Homo sapiens, UniProt P05556+P13612).
T2 construct: 100 µl of Jurkat cells (2.5 x 10^6 cells/ml) in DMEM plus BSA; host or cells: Jurkat T-cell line
Kind of test: Jurkat-CS-1 assay. The format is cell-based. Conditions: Jurkat cell adhesion to immobilized CS-1 derived peptide.

SMILES strings stand for the structures.

T2 sequence (P13612 34-1032): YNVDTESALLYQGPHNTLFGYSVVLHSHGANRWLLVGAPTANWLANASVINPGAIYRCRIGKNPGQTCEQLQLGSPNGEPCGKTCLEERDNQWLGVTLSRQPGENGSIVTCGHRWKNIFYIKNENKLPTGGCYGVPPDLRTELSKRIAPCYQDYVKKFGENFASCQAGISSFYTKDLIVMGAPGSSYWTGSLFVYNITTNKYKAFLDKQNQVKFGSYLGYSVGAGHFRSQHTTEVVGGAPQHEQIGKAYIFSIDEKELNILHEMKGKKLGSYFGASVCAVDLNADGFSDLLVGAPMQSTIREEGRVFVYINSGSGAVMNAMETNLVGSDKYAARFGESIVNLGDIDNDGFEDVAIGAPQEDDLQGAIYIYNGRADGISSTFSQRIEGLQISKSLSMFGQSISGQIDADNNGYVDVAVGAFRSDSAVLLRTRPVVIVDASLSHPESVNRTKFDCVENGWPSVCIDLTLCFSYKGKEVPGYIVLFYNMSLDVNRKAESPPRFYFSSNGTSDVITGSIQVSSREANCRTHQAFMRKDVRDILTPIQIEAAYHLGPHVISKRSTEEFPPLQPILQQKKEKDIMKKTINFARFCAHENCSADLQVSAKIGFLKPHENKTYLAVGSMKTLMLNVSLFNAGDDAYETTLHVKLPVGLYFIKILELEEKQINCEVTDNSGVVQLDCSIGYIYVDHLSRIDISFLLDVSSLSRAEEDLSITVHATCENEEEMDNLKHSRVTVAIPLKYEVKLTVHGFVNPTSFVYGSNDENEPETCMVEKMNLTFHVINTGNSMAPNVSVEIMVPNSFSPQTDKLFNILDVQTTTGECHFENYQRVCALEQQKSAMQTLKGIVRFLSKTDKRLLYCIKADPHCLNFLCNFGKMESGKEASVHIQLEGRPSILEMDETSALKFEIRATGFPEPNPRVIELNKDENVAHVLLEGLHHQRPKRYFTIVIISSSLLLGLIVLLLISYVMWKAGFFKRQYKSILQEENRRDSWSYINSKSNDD
T2 sequence (P05556 21-798): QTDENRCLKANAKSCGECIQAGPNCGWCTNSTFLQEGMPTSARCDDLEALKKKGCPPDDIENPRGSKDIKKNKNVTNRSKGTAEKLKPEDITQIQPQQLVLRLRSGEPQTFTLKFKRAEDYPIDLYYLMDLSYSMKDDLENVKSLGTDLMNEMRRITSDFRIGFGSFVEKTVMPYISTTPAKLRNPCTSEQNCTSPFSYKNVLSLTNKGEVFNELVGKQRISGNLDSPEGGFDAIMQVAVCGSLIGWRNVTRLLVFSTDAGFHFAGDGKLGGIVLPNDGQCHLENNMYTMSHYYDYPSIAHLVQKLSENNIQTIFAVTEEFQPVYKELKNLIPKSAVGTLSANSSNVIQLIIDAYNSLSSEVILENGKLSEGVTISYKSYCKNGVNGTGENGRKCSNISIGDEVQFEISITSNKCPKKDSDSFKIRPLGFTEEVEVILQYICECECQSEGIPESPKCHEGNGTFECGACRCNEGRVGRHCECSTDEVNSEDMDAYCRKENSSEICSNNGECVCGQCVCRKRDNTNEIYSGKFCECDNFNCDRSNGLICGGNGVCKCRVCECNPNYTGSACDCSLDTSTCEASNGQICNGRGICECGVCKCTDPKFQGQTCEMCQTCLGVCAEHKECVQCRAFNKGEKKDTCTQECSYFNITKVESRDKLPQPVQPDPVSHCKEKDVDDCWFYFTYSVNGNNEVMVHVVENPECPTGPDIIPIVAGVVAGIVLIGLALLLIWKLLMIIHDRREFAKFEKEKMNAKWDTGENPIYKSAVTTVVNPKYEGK
T1 sequence (P13612 34-1032): as the sequence (P13612 34-1032) above
T1 sequence (P05556 21-798): as the sequence (P05556 21-798) above

`O=C(O)c1cncc(C(=O)NC2(C(=O)N[C@@H](Cc3ccc(NC(=O)c4c(Cl)cccc4Cl)cc3)C(=O)O)CCCCC2)c1` [Example 59]: the IC50 at α4β1 integrin lay in the range of 800 to 5000 nM; on α4β1, 80 to 500 nM.

As for `O=C(O)/C=C/C(=O)Nc1cccc(C(=O)N[C@@H](Cc2ccc(NC(=O)c3c(Cl)cccc3Cl)cc2)C(=O)O)c1` [Example 37], the 50% inhibitory concentration (IC50) on α4β1 integrin was in the range of 5000 to 10000 nM; at α4β1 it was 500 to 1000 nM.

Regarding `CC(=O)c1cccc(OC(C)(C)C(=O)N[C@@H](Cc2ccc(NC(=O)c3c(Cl)cccc3Cl)cc2)C(=O)O)c1` [Example 19], the IC50 against α4β1 integrin lay within 800 to 5000 nM; on α4β1, 500 to 1000 nM.

As for `O=C(NC1CCCCC1C(=O)NC(Cc1ccc(NC(=O)c2c(Cl)cccc2Cl)cc1)C(=O)O)c1ccc([N+](=O)[O-])o1` (stereo not drawn) [Example 85], the IC50 against α4β1 integrin is at most 800 nM; on α4β1 it was at most 80 nM.

`CC1(C)[C@@H](C(=O)O)C[C@@H]1C(=O)N[C@@H](Cc1ccc(OCc2c(Cl)cccc2Cl)cc1)C(=O)O` [Example 94, (1S-trans)-N-[(3-Carboxy-2,2-dimethylcyclobutyl)carbonyl]-4-[(2,6-dichlorophenyl)methoxy]-L-phenylalanine]: the IC50 at α4β1 integrin is at most 800 nM; against α4β1, 80 to 500 nM.

Regarding `O=C(Nc1ccc(C[C@H](NC(=O)C2(NC(=O)C3CCOC3)CCCCC2)C(=O)O)cc1)c1c(Cl)cccc1Cl` (stereo partly drawn) [Example 69], the IC50 on α4β1 integrin was at most 800 nM; against α4β1 it was 80 to 500 nM.

Consider `O=C(Nc1ccc(C[C@H](NC(=O)N2CCCC(C(=O)O)C2)C(=O)O)cc1)c1c(Cl)cccc1Cl` (stereo partly drawn) [Example 116, 1-[[[(1S)-1-carboxy-2-[4-[(2,6-dichlorobenzoyl)amino]phenyl]ethyl]amino]carbonyl]-3-piperidinecarboxylic acid], for which the concentration for half-maximal inhibition (IC50) at α4β1 integrin is at most 800 nM; at α4β1, 80 to 500 nM.

As for `CC(=O)[C@H]1C[C@H](C(=O)N[C@@H](Cc2ccc(NC(=O)c3cccnc3Cl)cc2)C(=O)O)C1(C)C` [Example 104, (1S-trans)-N-[(3-Acetyl-2,2-dimethylcyclobutyl)carbonyl]-4-[[(2-chloro-3-pyridinyl)carbonyl]amino]-L-phenylalanine], the IC50 against α4β1 integrin lay in the range of 800 to 5000 nM; against α4β1, 500 to 1000 nM.

With `COCCC(=O)NC1(C(=O)N[C@@H](Cc2ccc(NC(=O)c3c(Cl)cccc3Cl)cc2)C(=O)O)CCCCC1` [Example 51], the IC50 at α4β1 integrin was 800 to 5000 nM; against α4β1, at most 80 nM.

For the compound `CC(=O)[C@@H]1C[C@@H](C(=O)N[C@@H](Cc2ccc(NC(=O)c3c(Cl)cccc3Cl)cc2)C(=O)O)C1(C)C` [Example 100, (1R-trans)-N-[(3-Acetyl-2,2-dimethylcyclobutyl]carbonyl]-4-[(2,6-dichlorobenzoyl)amino]-L-phenylalanine], the figures for the IC50 against α4β1 integrin and against α4β1 were 800 to 5000 nM and 80 to 500 nM, respectively.

With `CC(=O)[C@@H]1C[C@H](C(=O)N[C@@H](Cc2ccc(NC(=O)c3ccc(Cl)nc3Cl)cc2)C(=O)O)C1(C)C` [Example 107, (1S-cis)-N-[(3-Acetyl-2,2-dimethylcyclobutyl)carbonyl]-4-[[(2,6-dichloro-3-pyridinyl)carbonyl]amino]-L-phenylalanine], the IC50 against α4β1 integrin lay in the range of 800 to 5000 nM; against α4β1, 80 to 500 nM.

For `O=C(O)/C=C/c1ccc(C(=O)N[C@@H](Cc2ccc(NC(=O)c3c(Cl)cccc3Cl)cc2)C(=O)O)cc1` [Example 125, N-[[4-[(E)-3-Hydroxy-3-oxo-1-propenyl]phenyl]carbonyl]-4-[(2,6-dichlorobenzoyl)amino] -L-phenylalanine], the figures for the IC50 against α4β1 integrin and at α4β1 were 800 to 5000 nM and at most 80 nM, respectively.

For the compound `O=C(NC1(C(=O)N[C@@H](Cc2ccc(NC(=O)c3c(Cl)cccc3Cl)cc2)C(=O)O)CCCCC1)c1cc(C(=O)O)[nH]n1` [Example 65], the IC50 fell in the range of 800 to 5000 nM against α4β1 integrin and 80 to 500 nM at α4β1.

With `CC(C)(Sc1ccccc1C(=O)O)C(=O)N[C@@H](Cc1ccc(NC(=O)c2c(Cl)cccc2Cl)cc1)C(=O)O` [Example 25], the IC50 is at most 800 nM against α4β1 integrin and 500 to 1000 nM against α4β1.

Turning to `O=C(O)c1cncc(C(=O)Nc2cccc(C(=O)N[C@@H](Cc3ccc(NC(=O)c4c(Cl)cccc4Cl)cc3)C(=O)O)c2)c1` [Example 44], the IC50 at α4β1 integrin lay within 5000 to 10000 nM; against α4β1, 80 to 500 nM.

As for `O=C(O)c1ccccc1C(=O)NC1(C(=O)N[C@@H](Cc2ccc(NC(=O)c3c(Cl)cccc3Cl)cc2)C(=O)O)CCCCC1` [Example 56], the IC50 at α4β1 integrin was in the range of 800 to 5000 nM; against α4β1, 80 to 500 nM.

As for `O=C(C=C1CCC(C(=O)O)CC1)N[C@@H](Cc1ccc(NC(=O)c2c(Cl)cccc2Cl)cc1)C(=O)O` (stereo partly drawn) [Example 127, N-[4-Carboxy-1-cyclohexylideneacetyl]-4-[(2,6-dichlorobenzoyl)amino]-L-phenylalanine], the IC50 against α4β1 integrin lay within 800 to 5000 nM; at α4β1, 80 to 500 nM.

As for `O=C(Nc1ccc(CC(NC(=O)C2CCCCC2NC(=O)C2CCCO2)C(=O)O)cc1)c1c(Cl)cccc1Cl` (stereo not drawn) [Example 86], the half-maximal inhibitory concentration (IC50) against α4β1 integrin was at most 800 nM; on α4β1 it was at most 80 nM.

In the case of `O=C(Nc1ccc(C[C@H](NC(=O)N2CCCC(C(=O)O)C2)C(=O)O)cc1)c1c(Cl)cccc1Cl` (stereo partly drawn) [Example 114, 1-[[[(1S)-1-carboxy-2-[4-[(2,6-dichlorobenzoyl)amino]phenyl]ethyl]amino]carbonyl]-3-piperidinecarboxylic acid], the IC50 is at most 800 nM on α4β1 integrin and 80 to 500 nM against α4β1.

Regarding `O=C(O)/C=C1/CCCc2c(C(=O)N[C@@H](Cc3ccc(NC(=O)c4c(Cl)cccc4Cl)cc3)C(=O)O)cccc21` [Example 131, N-[[(5Z)-5-Carboxymethylene-7,8-dihydro-1(6H)-naphthyl]carbonyl]-4-[(2,6-dichlorobenzoyl)amino]-L-phenylalanine], the IC50 is at most 800 nM on α4β1 integrin and at most 80 nM on α4β1.

For the compound `O=C(NC1CCCCC1C(=O)NC(Cc1ccc(NC(=O)c2c(Cl)cccc2Cl)cc1)C(=O)O)c1cc(O)c2ccccc2n1` (stereo not drawn) [Example 82], the IC50 at α4β1 integrin was at most 800 nM; on α4β1 it was 80 to 500 nM.

For the compound `O=C(O)CCC(=O)NC1(C(=O)N[C@@H](Cc2ccc(NC(=O)c3c(Cl)cccc3Cl)cc2)C(=O)O)CCCCC1` [Example 46], the half-inhibitory concentration (IC50) on α4β1 integrin fell in the range of 800 to 5000 nM; against α4β1, 80 to 500 nM.

Consider `O=C(Nc1ccc(C[C@H](NC(=S)N2CCCC(C(=O)O)C2)C(=O)O)cc1)c1c(Cl)cccc1Cl` (stereo partly drawn) [Example 117, 1-[[[(1S)-1-carboxy-2-[4-[(2,6-dichlorobenzoyl)amino]phenyl]ethyl]amino]thiocarbonyl]-3-piperidinecarboxylic acid], for which the IC50 on α4β1 integrin was at most 800 nM; at α4β1, 80 to 500 nM.

In the case of `O=C(O)/C=C1\CCCc2c(C(=O)N[C@@H](Cc3ccc(NC(=O)c4c(Cl)cccc4Cl)cc3)C(=O)O)cccc21` [Example 134, N-[[(5E)-5-Carboxymethylene-7,8-dihydro-1(6H)-naphthyl]carbonyl]-4-[(2,6-dichlorobenzoyl)amino]-L-phenylalanine], the values for the 50% inhibitory concentration (IC50) against α4β1 integrin and at α4β1 were at most 800 nM and 80 to 500 nM, respectively.

`CC(=O)[C@@H]1C[C@H](CC(=O)N[C@@H](Cc2ccc(NC(=O)c3c(Cl)cccc3Cl)cc2)C(=O)O)C1(C)C` [Example 91, (1R-cis)-N-[(3-Acetyl-2,2-dimethylcyclobutyl)acetyl]-4-[(2,6-dichlorobenzoyl)amino]-L-phenylalanine]: the results for the IC50 against α4β1 integrin and against α4β1 were 800 to 5000 nM and 500 to 1000 nM, respectively.

On to `O=C(O)c1cccc(C(=O)N[C@H]2CCCC[C@H]2C(=O)N[C@@H](Cc2ccc(NC(=O)c3c(Cl)cccc3Cl)cc2)C(=O)O)n1` (relative stereo) [Example 80], for which the values for the half-maximal inhibitory concentration (IC50) against α4β1 integrin and at α4β1 were 800 to 5000 nM and 80 to 500 nM, respectively.

Turning to `COC(=O)[C@H](Cc1ccc(NC(=O)c2c(Cl)cccc2Cl)cc1)NC(=O)c1cccc2c1CCC/C2=C/C(=O)O` [Example 130, N-[[(5Z)-5-Carboxymethylene-7,8-dihydro-1(6H)-naphthyl]carbonyl]-4-[(2,6-dichlorobenzoyl)amino]-L-phenylalanine methyl ester], the IC50 against α4β1 integrin was 800 to 5000 nM; on α4β1, 500 to 1000 nM.

As for `O=C(NC1(C(=O)N[C@@H](Cc2ccc(NC(=O)c3c(Cl)cccc3Cl)cc2)C(=O)O)CC2CCC1C2)c1cc(O)c2ccccc2n1` (stereo partly drawn) [Example 73], the results for the half-inhibitory concentration (IC50) against α4β1 integrin and on α4β1 were 800 to 5000 nM and 500 to 1000 nM, respectively.

On to `CC1(C)[C@@H](C(=O)N[C@@H](Cc2ccc(NC(=O)c3c(Cl)cccc3Cl)cc2)C(=O)O)C[C@H]1C(=O)O` [Example 99, (1S-cis)-N-[(3-Carboxy-2,2-dimethylcyclobutyl)carbonyl]-4-[(2,6-dichlorobenzoyl)amino]-L-phenylalanine], for which the half-maximal inhibitory concentration (IC50) on α4β1 integrin was in the range of 800 to 5000 nM; on α4β1, 80 to 500 nM.

Take `CC1(C)[C@@H](C(=O)O)C[C@H]1C(=O)N[C@@H](Cc1ccc(NC(=O)c2c(Cl)cccc2Cl)cc1)C(=O)O` [Example 103, (1R-cis)-N-[(3-Carboxy-2,2-dimethylcyclobutyl)carbonyl]-4-[(2,6-dichlorobenzoyl)amino]-L-phenylalanine]: the IC50 at α4β1 integrin was at most 800 nM; against α4β1 it was 80 to 500 nM.

In general, IC50 refers to the concentration at which inhibition is half-maximal.
